Test results reported in ChEMBL document CHEMBL2390902, “Discovery of 1-(1,3,5-triazin-2-yl)piperidine-4-carboxamides as inhibitors of soluble epoxide hydrolase” (Bioorg Med Chem Lett, 2013).

Assays:
Cytochrome P450 2C9 = Cytochrome P450 2C9 (Homo sapiens, UniProt P11712)
Description: Inhibition of CYP2C9 (unknown origin)

[1] = target: T1, Bifunctional epoxide hydrolase 2 (Homo sapiens, UniProt P34913)
T1 sequence (P34913 whole entry): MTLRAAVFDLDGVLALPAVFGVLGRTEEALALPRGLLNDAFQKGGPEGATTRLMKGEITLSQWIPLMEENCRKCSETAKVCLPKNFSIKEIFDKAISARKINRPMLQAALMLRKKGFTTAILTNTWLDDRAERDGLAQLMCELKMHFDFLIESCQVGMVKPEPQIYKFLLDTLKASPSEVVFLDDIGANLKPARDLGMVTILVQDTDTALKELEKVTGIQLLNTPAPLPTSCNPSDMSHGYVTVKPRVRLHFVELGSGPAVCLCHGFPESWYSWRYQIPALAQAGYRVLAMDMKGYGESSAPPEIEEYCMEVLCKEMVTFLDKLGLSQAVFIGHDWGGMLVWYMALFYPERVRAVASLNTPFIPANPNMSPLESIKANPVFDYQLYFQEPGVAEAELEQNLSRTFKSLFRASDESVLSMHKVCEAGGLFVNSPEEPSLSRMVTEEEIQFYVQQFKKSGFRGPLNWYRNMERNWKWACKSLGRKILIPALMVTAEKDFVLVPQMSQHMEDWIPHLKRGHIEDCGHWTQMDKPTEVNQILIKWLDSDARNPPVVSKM
Description: Inhibition of human soluble epoxide hydrolase using PHOME as substrate assessed as formation of 6-methoxy-2-naphthaldehyde incubated for 10 mins prior to substrate addition measured with in 30 mins by fluorescence assay

[2] = target: T1, Bifunctional epoxide hydrolase 2; remark: listed apart in the source
Description: Inhibition of human soluble epoxide hydrolase overexpressed in HEK293F cells using EET as substrate assessed as formation of DHET incubated for 30 mins prior to substrate addition measured after 60 mins by ELISA

[3] = Plasma clearance in rat at 1 mg/kg, iv; format: ADME, organism-based; parameters: dose 1 mg/kg, route intravenous
[4] = Fraction unbound in rat plasma; format: ADME, cell-free

Sequence of Cytochrome P450 2C9 (P11712 whole entry): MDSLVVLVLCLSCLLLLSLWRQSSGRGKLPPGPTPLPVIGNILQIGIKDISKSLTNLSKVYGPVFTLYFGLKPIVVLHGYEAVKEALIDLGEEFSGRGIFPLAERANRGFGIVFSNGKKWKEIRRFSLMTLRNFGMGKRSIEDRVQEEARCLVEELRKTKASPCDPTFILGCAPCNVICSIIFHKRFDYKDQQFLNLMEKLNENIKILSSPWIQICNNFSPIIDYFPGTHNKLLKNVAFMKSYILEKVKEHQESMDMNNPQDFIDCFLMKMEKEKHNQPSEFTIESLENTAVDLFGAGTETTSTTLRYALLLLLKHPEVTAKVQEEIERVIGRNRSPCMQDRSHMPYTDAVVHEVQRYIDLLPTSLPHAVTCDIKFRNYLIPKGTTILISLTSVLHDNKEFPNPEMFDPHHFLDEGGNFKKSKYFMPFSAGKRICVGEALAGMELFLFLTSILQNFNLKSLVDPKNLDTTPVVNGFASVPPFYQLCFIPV

Row | IC50 (Cytochrome P450 2C9) | IC50 [1] | IC50 [2] | clearance [3] | fraction unbound [4] | SMILES
1 | 2 µM | 32 nM | – | – | – | CNc1cc(C)cc(N2CCC(C(=O)NCc3ccccc3C(F)(F)F)CC2)c1
2 | 11 µM | 10 nM | 100 nM | 61 mL/min/kg | – | CNc1cc(C)cc(N2CCC(C(=O)NCc3ccccc3C(F)(F)F)CC2)n1
3 | > 25 µM | 1 nM | 3 nM | 44 mL/min/kg | – | CNc1nc(C)nc(N2CCC(C(=O)NCc3ccccc3OC(F)(F)F)CC2)n1
4 | 9.6 µM | 4 nM | 80 nM | – | – | CCc1nc(NC)nc(N2CCC(C(=O)NCc3ccccc3C(F)(F)F)CC2)n1
5 | – | – | – | 46 mL/min/kg | – | CNc1nc(N2CCC(C(=O)NCc3ccccc3C(F)(F)F)CC2)nc(N2CCN(C)CC2)n1
6 | > 25 µM | 1590 nM | – | – | – | CNc1cc(C)nc(N2CCC(C(=O)NCc3ccccc3C(F)(F)F)CC2)c1
7 | 1.8 µM | 1 nM | 63 nM | 3 mL/min/kg | 0.015 | CNc1nc(-c2ccccc2)nc(N2CCC(C(=O)NCc3ccccc3C(F)(F)F)CC2)n1
8 | > 25 µM | 1 nM | 2 nM | 7 mL/min/kg | – | CNc1nc(C)nc(N2CCC(C(=O)NCc3ccc(OC)cc3C(F)(F)F)CC2)n1
9 | 17 µM | 80 nM | – | 140 mL/min/kg | – | CNc1nc(N(C)CCN(C)C)nc(N2CCC(C(=O)NCc3ccccc3C(F)(F)F)CC2)n1
10 | > 25 µM | 3 nM | 50 nM | – | – | CNc1nc(C)nc(N2CCC(C(=O)NCc3ccc(F)cc3C(F)(F)F)CC2)n1
11 | 1 µM | 5 nM | 80 nM | 73 mL/min/kg | – | CNc1cc(N2CCC(C(=O)NCc3ccccc3C(F)(F)F)CC2)nc(C)n1
12 | 25 µM | 3 nM | 100 nM | 51 mL/min/kg | – | CNc1nc(C)nc(N2CCC(C(=O)NCc3ccccc3C(F)(F)F)CC2)n1
13 | > 25 µM | 40 nM | – | – | – | CNc1nc(C)cc(N2CCC(C(=O)NCc3ccccc3C(F)(F)F)CC2)n1
14 | > 25 µM | 630 nM | – | – | – | CNc1nc(C)nc(N2CCC(C(=O)NCc3cccc(OC(F)(F)F)c3)CC2)n1
15 | 0.063 µM | 1 nM | – | – | – | CNc1nc(C2CCCCC2)nc(N2CCC(C(=O)NCc3ccccc3C(F)(F)F)CC2)n1
16 | 25 µM | 20 nM | 100 nM | 79 mL/min/kg | – | CNc1nc(NC)nc(N2CCC(C(=O)NCc3ccccc3C(F)(F)F)CC2)n1
17 | 0.4 µM | 1 nM | 10 nM | – | – | Cc1nc(NC(C)C)nc(N2CCC(C(=O)NCc3ccccc3C(F)(F)F)CC2)n1
18 | > 25 µM | 80 nM | – | – | – | CNc1nc(C)nc(N2CCC(C(=O)NCc3ccccc3C#N)CC2)n1
19 | > 25 µM | 1600 nM | – | – | – | CNc1nc(C)nc(N2CCC(C(=O)NCc3ccccc3OC)CC2)n1
20 | > 25 µM | 200 nM | – | – | – | CNc1nc(C)nc(N2CCC(C(=O)NCc3ccccc3C)CC2)n1
21 | 1.8 µM | 1 nM | 1 nM | 27 mL/min/kg | – | COCCNc1nc(C)nc(N2CCC(C(=O)NCc3ccccc3C(F)(F)F)CC2)n1
22 | > 25 µM | 160 nM | – | – | – | CNc1cc(C)nc(N2CCC(C(=O)NCc3ccccc3C(F)(F)F)CC2)n1
23 | > 25 µM | 126 nM | – | – | – | CNc1cc(N2CCC(C(=O)NCc3ccccc3C(F)(F)F)CC2)cc(C)n1
24 | > 25 µM | 400 nM | – | – | – | CNc1nc(C)nc(N2CCC(C(=O)NCc3ccc(OC(F)(F)F)cc3)CC2)n1
25 | 0.4 µM | 1 nM | 3 nM | – | – | Cc1nc(N2CCOCC2)nc(N2CCC(C(=O)NCc3ccccc3C(F)(F)F)CC2)n1
26 | > 25 µM | 200 nM | – | – | – | CNc1nc(C)nc(N2CCC(C(=O)NCc3ccccc3)CC2)n1
